System: K562
Experiment: Cytotoxicity against Homo sapiens (human) K562 cells after 24 hr by MTT assay
Format: functional, cell-based
Conditions: K562, 24 h

Row | Compound | IC50 [µM]
1 | C[C@H](NC(=O)c1ccccc1)c1n[nH]c(=S)o1 | 377
2 | C[C@H](NC(=O)c1ccc(Cl)cc1)c1n[nH]c(=S)o1 | 31.1
3 | CC(C)[C@H](NC(=O)c1ccccc1)c1n[nH]c(=S)o1 | 245
4 | CC(C)[C@H](NC(=O)c1ccc([N+](=O)[O-])cc1)c1n[nH]c(=S)o1 | 43.6
5 | C[C@H](NC(=O)c1cccnc1)c1n[nH]c(=S)o1 | 739
6 | C[C@H](NC(=O)Cc1ccccc1)c1n[nH]c(=S)o1 | 1020
7 | COc1ccc(/C=C/C(=O)N[C@H](C)c2n[nH]c(=S)o2)cc1 | 330
8 | O=C(/C=C/c1ccccc1)N[C@H](CO)c1n[nH]c(=S)o1 | 435
9 | C[C@H](NC(=O)c1ccccc1)c1n[nH]c(=S)n1N | 372
10 | C[C@H](NC(=O)c1ccc(Cl)cc1)c1n[nH]c(=S)n1N | 98.6
11 | CC(C)[C@H](NC(=O)c1ccccc1)c1n[nH]c(=S)n1N | 154
12 | NC(=O)NO [HYDROXYUREA] | 688

Source: ChEMBL document CHEMBL3046440, “Synthesis and antitumor evaluation of some 1,3,4-oxadiazole-2(3H)-thione and 1,2,4-triazole-5(1H)-thione derivatives” (Med Chem Res, 2012)
